This is an account of results in US10781456B2, “Carbon-neutral and carbon-positive photorespiration bypass routes supporting higher photosynthetic rate and yield” (Max-Planck-Gesellschaft zur Förderung der Wissenschaften …, priority 2015, dated 2020).

What is called Km is the substrate concentration at which the rate is half of its maximum. Broadly, the kcat is the number of substrate molecules converted per active site and unit of time at saturation.

Read-outs that look alike come from different tables or passages of the source. Bounds are passed on as bounds.

Data set [1] concerns the target D-fructose 6-phosphate aldolase encoded by E. coli gene fsaA (UniProt P78055). The note with it: cited from earlier work.
Data set [2] concerns the target D-fructose 6-phosphate aldolase encoded by E. coli gene fsaB (UniProt P32669). The note with it: cited from earlier work.
In data set [3] the target is transaldolase Tal from B. subtilis (UniProt P19669). The note with it: cited from earlier work.
In data set [4] the target is transaldolase TalB from E. coli (UniProt P0A870). The note with it: cited from earlier work.
Data set [5] concerns the target transaldolase Tal from C. glutamicum (UniProt Q8NQ64). The note with it: cited from earlier work.
Substrate in data set [6]: O=C(O)CO
In words: purified protein, by the assay type. The note with it: other: 37° C., pH 7.5, 2 mM acetyl-CoA, 10-800 mM glycolate, n=3.

For data set [7], the system named is glycolyl-CoA. Kind of data set: MCRCa coupled assay: glycolyl-CoA carboxylation by PCC coupled to two step reduction to glycerate by MCRCa (reactions 3#, 4#, 5), HPLC-hrMS and NADPH absorption. Format: biochemical. The procedure: In addition to the above mentioned assays also another assay was performed in which the formation of tartronyl-CoA from glycolyl-CoA (reaction 3#) by the PCCMe_D407I_Y143H enzyme was directly coupled to its subsequent two step reduction via tartronate-semialdehyde (reaction 4#) to glycerate (reaction 5) by use of the purified MCRCa (Kröger et al., 2011, loc. cit.). The reaction mixture (300 μL) contained 200 mM NH4HCO3 buffer, pH 7.7, 5 mM MgCl2, 1 mM ATP, 0.4 mM NADPH, 43 μg PCCMe_D407I_Y143H, and 184 μg of MCRCa.
To determine whether MCRCa was able to catalyze the two step reduction of tartonyl-CoA to glycerate (via tartronic semialdehyde), samples of the reaction mixture were withdrawn after all of the NADPH was consumed. The samples were stopped with formic acid (5% final concentration). The acidified samples were centrifuged at 4° C. and 17 000×g and the supernatants were analyzed by HPLC-hrMS.
The formation of glycerate was analyzed using an Agilent 6550 iFunnel Q-TOF LC-MS system equipped with an electrospray ionization source set to negative ionization mode. […]
LC-MS data were analyzed using MassHunter Qualitative Analysis software (Agilent). […] In such assays the tartronate semialdehyde can be covalently derivatized with phenylhydrazine to a phenylhydrazone, which can be detected by its absorbance at 324 nm and confirmed by its corresponding mass spectrum. […]

Data set [8] has as its system glycolyl-CoA. Kind of data set: propionyl-CoA carboxylase ATP hydrolysis assay coupled to PK/LDH, NADH oxidation at 340 nm, product tartronyl-CoA confirmed by UPLC-hrMS (reaction 3#). It is filed as biochemical. The procedure: The activity of the PCCMe_D407I_Y143H protein as well as the PCCMe protein was determined spectrophotometrically at 37° C. The ATP hydrolysis reaction of the respective enzyme was coupled to ATP regeneration by pyruvate kinase (PK) with phosphoenolpyruvate (PEP) and subsequent reduction to lactate by lactate dehydrogenase (LDH). The oxidation of NADH by LDH was followed spectrophotometrically at 340 nm. The reaction mixture (300 μL) contained 200 mM NH4HCO3 buffer, pH 7.7, 5 mM MgCl2, 1 mM ATP, 1 mM PEP, 4 U PK, 5.8 U LDH, 0.3 mM NADH and 48 μg of PCCMe_D407I_Y143H or PCCMe. The reaction was initiated by addition of 1 mM glycolyl-CoA. Samples for UPLC-hrMS were withdrawn and stopped by acidification (5% formic acid) after most of the NADH was consumed. Precipitated protein was removed by centrifugation at 4° C. and 17 000×g. The supernatants were analyzed by UPLC-hrMS as described above. […] As mentioned above, and shown in FIG. 10, the glycolyl-CoA carboxylation activity of the PCCMe_D407I_Y143H enzyme was confirmed by direct detection of the product tartronyl-CoA by UPLC-hrMS.
In a second assay, the reaction mixture was slightly modified for a ^13C labeling experiment. Here, the reaction mixture contained 50 mM NH4HCO3 buffer, pH 7.7 and 150 mM [^13C]NaHCO3, pH 7.7 (otherwise as above-mentioned). […]

Substrate in data set [9]: O=C(COP(=O)(O)O)[C@H](O)[C@H](O)CO
Kind of data set: isomerisation of D-ribulose 1-phosphate to D-ribose 1-phosphate (reaction 29#), preliminary study. It is filed as biochemical. The note with it: other: preliminary study.

Setting [10] is: as an acceptor, read-out: KM for glycolaldehyde as an acceptor.
[11] abbreviates: bound stated for both fsaA and fsaB enzymes, read-out: KM (condensation of glycolaldehyde as donor with D-glyceraldehyde 3-phosphate as acceptor).
Setting [12] is: D-fructose 6-phosphate and glycolaldehyde, range over the three transaldolases.
[13] abbreviates: transaldolase reaction with D-fructose 6-phosphate, read-out: KM towards glycolaldehyde.

As for `O=CCO` [glycolaldehyde], the Km in data set [1] (setting [10]) is above 60 mM; in data set [1] (setting [11]), below 1 mM; in data set [1] (read-out: KM for glycolaldehyde), around 0.2 mM; in [2] (setting [10]), above 60 mM; in [2] (setting [11]), below 1 mM; in data set [3] (setting [13]), above 60 mM. The Km in [4] (setting [13]) and in data set [5] (setting [13]) was above 60 mM throughout. In addition, the vmax in data set [3] (setting [12]), in [4] (setting [12]) and in data set [5] (setting [12]) was 1.6 to 8.8 µmol/min/mg each time.

B1: propionyl-CoA transferase from Ralstonia eutropha (PCTRe), wild type, SEQ ID NO: 12 (Cupriavidus necator H16) (protein)
chain: MKVITAREAAALVQDGWTVASAGFVGAGHAEAVTEALEQRFLQSGLPRDLTLVYSAGQGDRGARGVNHFGNAGMTASIVGGHWRSATRLATLAMAEQCEGYNLPQGVLTHLYRAIAGGKPGVMTKIGLHTFVDPRTAQDARYHGGAVNERARQAIAEGKACWVDAVDFRGDEYLFYPSFPIHCALIRCTAADARGNLSTHREAFHHELLAMAQAAHNSGGIVIAQVESLVDHHEILQAIHVPGILVDYVVVCDNPANHQMTFAESYNPAYVTPWQGEAAVAEAEAAPVAAGPLDARTIVQRRAVMELARRAPRVVNLGVGMPAAVGMLAHQAGLDGFTLTVEAGPIGGTPADGLSFGASAYPEAVVDQPAQFDFYEGGGIDLAILGLAELDGHGNVNVSKFGEGEGASIAGVGGFINITQSARAVVFMGTLTAGGLEVRAGDGGLQIVREGRVKKIVPEVSHLSFNGPYVASLGIPVLYITERAVFEMRAGADGEARLTLVEIAPGVDLQRDVLDQCSTPIAVAQDLREMDARLFQAGPLHL
Consider B1, for which the Km in [6] is reported as 51.7 ± 9.6 mM (glycolate) mM.

B2: PCCMe: propionyl-CoA carboxylase of Methylobacterium extorquens, subunits pccA (SEQ ID NO: 2) and pccB (SEQ ID NO: 4) (protein, listed as Methylobacterium extorquens)
alpha: MFDKILIANRGEIACRIIKTAQKMGIKTVAVYSDADRDAVHVAMADEAVHIGPAPAAQSYLLIEKIIDACKQTGAQAVHPGYGFLSERESFPKALAEAGIVFIGPNPGAIAAMGDKIESKKAAAAAEVSTVPGFLGVIESPEHAVTIADEIGYPVMIKASAGGGGKGMRIAESADEVAEGFARAKSEASSSFGDDRVFVEKFITDPRHIEIQVIGDKHGNVIYLGERECSIQRRNQKVIEEAPSPLLDEETRRKMGEQAVALAKAVNYDSAGTVEFVAGQDKSFYFLEMNTRLQVEHPVTEMITGLDLVELMIRVAAGEKLPLSQDQVKLDGWAVESRVYAEDPTRNFLPSIGRLTTYQPPEEGPLGGAIVRNDTGVEEGGEIAIHYDPMIAKLVTWAPTRLEAIEAQATALDAFAIEGIRHNIPFLATLMAHPRWRDGRLSTGFIKEEFPEGFIAPEPEGPVAHRLAAVAAAIDHKLNIRKRGISGQMRDPSLLTFQRERVVVLSGQRFNVTVDPDGDDLLVTFDDGTTAPVRSAWRPGAPVWSGTVGDQSVAIQVRPLLNGVFLQHAGAAAEARVFTRREAELADLMPVKENAGSGKQLLCPMPGLVKQIMVSEGQEVKNGEPLAIVEAMKMENVLRAERDGTISKIAAKEGDSLAVDAVILEFA
beta: MKDILEKLEERRAQARLGGGEKRLEAQHKRGKLTARERIELLLDHGSFEEFDMFVQHRSTDFGMEKQKIPGDGVVTGWGTVNGRTVFLFSKDFTVFGGSLSEAHAAKIVKVQDMALKMRAPIIGIFDAGGARIQEGVAALGGYGEVFRRNVAASGVIPQISVIMGPCAGGDVYSPAMTDFIFMVRDTSYMFVTGPDVVKTVTNEVVTAEELGGAKVHTSKSSIADGSFENDVEAILQIRRLLDFLPANNIEGVPEIESFDDVNRLDKSLDTLIPDNPNKPYDMGELIRRVVDEGDFFEIQAAYARNIITGFGRVEGRTVGFVANQPLVLAGVLDSDASRKAARFVRFCNAFSIPIVTFVDVPGFLPGTAQEYGGLIKHGAKLLFAYSQATVPLVTIITRKAFGGAYDVMASKHVGADLNYAWPTAQIAVMGAKGAVEIIFRAEIGDADKIAERTKEYEDRFLSPFVAAERGYIDEVIMPHSTRKRIARALGMLRTKEMEQPWKKHDNIPL
modifications: [CDS]1..2004 from SEQ ID NO 1; [CDS]1..1533 from SEQ ID NO 3
Regarding B2, the “activity with glycolyl-CoA in the MCRCa coupled assay” value in data set [7] is “no activity could be measured”. Further, the “glycolyl-CoA carboxylation activity (tartronyl-CoA by UPLC-hrMS)” value in [8] is given as “exhibited a glycolyl-CoA carboxylation activity, although the activity was lower”. The “glycolyl-CoA-dependent ATP hydrolysis rate” value in data set [8] (1 mM glycolyl-CoA, 37° C.) is listed as 0.4 U mg^−1.

B3: 5-methylthio-D-ribulose 1-phosphate 1,2-isomerase Rru_A0360 (Rhodospirillum rubrum ATCC 11170) (protein)
chain: MNVKGTPTRTIWPAREGGAVWIIDQTRLPHEFVTQRLNDLGAVAHAIRAMLVRGAPLIGATAAYGVALGMAEDPSDEGLTRACQTLLATRPTAVNLRWAIEAMAESLAAVPPDQRAQAAWAKAGAICDEDVALNEAIGDHGLGIIKDLARTKGVEKGGEGPINILTHCNAGWLATVDWGTALAPLYKAHDAGLPIHVWVDETRPRNQGASLTAWELNSHGVPHTVIADNTGGHLMQHGLVDMVIVGTDRTTATGDVCNKIGTYLKALAAFDNAVPFYVALPGPTIDWTVNDGLREIPIEQRDAAEVTRVWGRTAAGALEWVTITPTGSPAANYAFDVTPARLITGLITERGVCAASAAGLAGLYPERAPAPVPAGSAAGKGAAATADGAL
notes: preliminary kinetics, preparation not described
Turning to B3, the kcat in [9] came to 0.03 s⁻¹.
